From patent publication US7902373B2 (Pfizer Inc, priority 2006, dated 2011)

Tests used:
[1] = tested on: A. suum antigen-induced asthmatic response in conscious sheep; experiment: In vivo assay, anti-asthmatic effects in a sheep model of asthma; conditions: i.v. infusion, single dose of 1, 0.3 or 0.1 mg/kg, specific lung resistance (RL)
Excerpt: In vivo Assay—Anti-Asthmatic Effects in a Sheep Model of Asthma A validated model of A. suum antigen-induced asthmatic response in conscious sheep was used to evaluate the pharmacokinetic properties, inhibition of antigen-induced early and late airway bronchoconstriction in the lung by compound (Abraham, W. M., et al., Am Rev Respir Dis 1991; 143:787-796). […] An aerosol of A. suum extract, generated using a disposable medical nebulizer (Raindrop®, Puritan Bennett) was delivered in at a tidal volume of 500 mL and a rate of 20 breaths/min. A compound of Example 2 was delivered by i.v. infusion over the interval t=0-20 min prior to antigen challenge. A single dose of 1, 0.3 or 0.1 mg//kg was evaluated. Baseline and post-drug measurements of specific lung resistance (RL) were obtained immediately prior to challenge (t=30 min) with A. suum antigen, immediately after challenge and then hourly from 1 to 6 h post challenge and on the half-hour from 6.5, 5-8 h post challenge. Measurements of RL were obtained 24 h post challenge, followed by the 24 h post-challenge dose-response curve for carbachol. […] To assess airway responsiveness, the cumulative carbachol dose in breath units (BU) that increased RL 400% over the post-buffer value (i.e., PC400) were calculated from the dose-response curve. […]

[2] = target: human recombinant H-PGDS (Homo sapiens, UniProt O60760); experiment: Fluorescence intensity h-PGDS TBA enzyme assay; type: biochemical; conditions: Examples up to 622 (and 3a, 3b)
Sequence of human recombinant H-PGDS (O60760 whole entry): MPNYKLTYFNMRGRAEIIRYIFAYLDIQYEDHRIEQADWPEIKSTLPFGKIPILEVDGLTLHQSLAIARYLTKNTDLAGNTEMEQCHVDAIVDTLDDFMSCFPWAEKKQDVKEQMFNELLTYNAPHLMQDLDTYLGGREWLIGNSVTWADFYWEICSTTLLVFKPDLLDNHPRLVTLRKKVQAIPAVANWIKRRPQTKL

IC50 [2]: 0.852 nM
SMILES: O=C(NC1CCN(CC(F)(F)F)CC1)c1ccc(-c2cccc(F)c2)nc1 [Example 2, 6-(3-Fluorophenyl)-N-(1-(2,2,2-trifluoroethyl)piperidin-4-yl)nicotinamide]
early airway response (0-2 h after allergen challenge) [1]: not reduced
late airway response (4-8 h after antigen challenge) inhibited [1]: approximately 60%
